Columns and labels:
[1] = test system: Human immunodeficiency virus 1; test: Antiviral activity against HIV1 infected in human C8166 cells assessed as reduction in viral infection by measuring inhibition of syncytia formation incubated for 3 to 7 days by p24 detection based ELISA; assay type: functional, organism-based; details: Human immunodeficiency virus 1, C8166
[2] = test system: Hepatitis B virus; test: Antiviral activity against Hepatitis B virus infected in human HepG2.2.15 cells assessed as inhibition of HBeAg secretion at 5 uM after 9 days by ELISA relative to control; assay type: functional; details: HepG2.2.15, 216 h
[3] = test system: Hepatitis B virus; test: Antiviral activity against Hepatitis B virus infected in human HepG2.2.15 cells assessed as inhibition of HBsAg secretion at 5 uM after 9 days by ELISA relative to control; assay type: functional; details: HepG2.2.15, 216 h
[4] = test system: HepG2 2.2.15; test: Cytotoxicity against human HepG2.2.15 cells after 9 days by MTT assay; assay type: functional; details: HepG2 2.2.15, 216 h

[N-]=[N+]=N[C@]1(CO)O[C@@H](n2ccc(N)nc2=O)[C@@H](F)[C@@H]1O [RO-0622]
EC50 [1]: 0.0003 µM

[N-]=[N+]=N[C@]1(CO)O[C@@H](n2cc(CO)nn2)[C@@H](F)[C@@H]1O
inhibition at 5 µM [2]: 10.8% | inhibition at 5 µM [3]: 21.5% | CC50 [4]: > 1000 µM

CNC(=N)c1cn([C@@H]2O[C@@](CO)(N=[N+]=[N-])[C@@H](O)[C@@H]2F)nn1
inhibition at 5 µM [2]: 13.8% | inhibition at 5 µM [3]: 22.2% | CC50 [4]: > 1000 µM

COC(=O)c1cn([C@@H]2O[C@@](CO)(N=[N+]=[N-])[C@@H](O)[C@@H]2F)nn1
inhibition at 5 µM [2]: 12.3% | inhibition at 5 µM [3]: 22% | CC50 [4]: 115 µM
